Literature values as cited in patent US8614315B2, “Cefdinir and cefixime formulations and uses thereof” (priority 2010, dated 2013).

Legend:
[1] = pH 3.2, room temperature
[2] = not given; remark: listed apart in the source

Row | solubility in water, methanol, ethanol, acetone and many other organic solvents | solubility in a solution with a pH value of 3.2 [1] [mg/mL] | solubility in ethanol and acetone ([2]; ethanol, acetone) | solubility in ether, ethyl acetate, hexane and water ([2]; ether, ethyl acetate, hexane, water) | solubility in methanol and propylene glycol ([2]; methanol, propylene glycol) | SMILES
1 | poor solubility | – | – | – | – | C=CC1=C(C(=O)O)N2C(=O)[C@@H](NC(=O)/C(=N\O)c3csc(N)n3)[C@H]2SC1 [Cefdinir, (6R,7R)-7-[[(2Z)-(2-amino-4-thiazolyl)(hydroxyimino)acetyl]amino]-3-ethenyl-8-oxo-5-thia-1-azabicyclo[4.2.0]oct-2-en-2-carboxylic acid]
2 | – | 0.5 | partially soluble | does not dissolve | freely soluble | C=CC1=C(C(=O)O)N2C(=O)[C@@H](NC(=O)/C(=N\OCC(=O)O)c3csc(N)n3)[C@H]2SC1 [Cefixime, (6R,7R)-7-{[2-(2-amino-1,3-thiazol-4-yl)-2-(carboxymethyloxyimino)acetyl]amino}-3-ethenyl-8-oxo-5-thia-1-azabicyclo [4.2.0]oct-2-en-2-carboxylic acid]
